Laboratory results as given in patent publication EP1200406B1, “CYCLIC AMIDES AND IMIDES HAVING SELECTIVE ANTAGONIST ACTIVITY AT ALPHA-1D ADRENERGIC RECEPTOR” (RECORDATI INDUSTRIA CHIMICA E FARMACEUTICA S.p.a., priority 1999, dated 2001).
Read-outs that look alike come from different tables or passages of the source.

Assays:
[1] = molecular target: T1, human recombinant α1b adrenoceptor (Homo sapiens, UniProt P35368); test: Radioligand binding ([3H]prazosin) on membranes of CHO cells expressing cloned α1b adrenoceptor; conditions: human cloned receptor, CHO cell membranes, 0.2 nM [3H]prazosin; read-out: Affinity (Ki) α1b
T1 construct: expressed in transfected cells; host or cells: CHO cells (membranes)
T1 sequence (P35368 1-520): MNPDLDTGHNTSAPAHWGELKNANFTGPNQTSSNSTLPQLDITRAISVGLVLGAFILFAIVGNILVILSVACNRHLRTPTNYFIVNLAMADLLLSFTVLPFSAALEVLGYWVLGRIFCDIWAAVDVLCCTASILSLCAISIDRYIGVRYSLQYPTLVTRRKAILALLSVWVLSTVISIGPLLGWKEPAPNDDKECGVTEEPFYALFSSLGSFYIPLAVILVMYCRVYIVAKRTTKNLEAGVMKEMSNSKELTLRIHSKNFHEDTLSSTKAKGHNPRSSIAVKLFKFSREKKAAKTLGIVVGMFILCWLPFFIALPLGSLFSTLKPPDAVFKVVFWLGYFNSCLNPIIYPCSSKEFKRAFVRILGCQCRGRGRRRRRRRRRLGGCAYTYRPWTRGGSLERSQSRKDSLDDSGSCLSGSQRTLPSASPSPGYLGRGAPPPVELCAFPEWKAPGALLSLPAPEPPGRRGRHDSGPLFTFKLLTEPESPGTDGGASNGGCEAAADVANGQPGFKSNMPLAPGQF
Protocol: (§1) The determination of affinity for cloned subtypes of human α1 adrenergic receptors was performed in membranes from CHO cells (chinese hamster ovary cells) transfected by electroporation with DNA expressing the genes encoding each α1-adrenoceptor subtype, namely α1a, α1b and α1d.. Cloning and stable expression of the human α1-adrenoceptor gene were performed as previously described (Testa et al., Pharmacol. Comm. 6, 79-86 (1995)). CHO cell membranes were incubated in […] Tris pH 7.4 with 0.2 nM [^3H]prazosin, in a final volume of 1.02 ml for 30 minutes at 25°C, in the absence or presence of competing drugs (1 pM-10 µM). Non-specific binding was determined in the presence of 10 µM phentolamine. Incubation was stopped by addition of ice-cold Tris buffer and rapid filtration through 0.2% polyethyleneimine pretreated Schleicher & Schuell GF52 filters. Genomic clone G-21 coding for the human 5-HT1A-serotoninergic receptor was stably transfected in a human cell line (HeLa) (Fargin et al., J. Biol. Chem. 284, 14848-14852 (1989)). The HeLa cells were grown as monolayers in Dulbecco's modified Eagle's medium (DMEM), supplemented with 10% foetal calf serum and gentamicin (100 µg/ml), 5% CO2, at 37°C. The cells were detached from the growth flask at 95% confluence by a cell scraper and were lysed in ice-cold 5 mM Tris and 5-mM EDTA buffer (pH 7.4). The homogenates were centrifuged at 40000 x g x 20 minutes and the membranes were re-suspended in a small volume of ice-cold 5 mM Tris and 5-mM EDTA buffer (pH 7.4) and immediately frozen and stored at -70°C until use. On the experiment day, the cell membranes were re-suspended in a buffer containing 50 mM Tris (pH 7.4), 2.5 mM MgCl2, 10 µM pargyline (Fargin et al., Nature 335, 358-360 (1988)). […] The incubation was stopped by addition of ice-cold Tris buffer and rapid filtration through 0.2%-polyethyleneimine-pretreated Schleicher & Schuell filters. The inhibition of specific binding of the radioligands by the drugs was analysed to estimate the IC50 value by using the non-linear curve-fitting programme Allfit (De Lean et al., Am. J. Physiol. 235, E97-E102 (1978)). The IC50 value was converted to an affinity constant (Ki) by the equation of Cheng & Prusoff (Biochem. Pharmacol. 22, 3099-3108 (1973)). Data were expressed as mean of Ki.

[2] = molecular target: T2, human recombinant α1d adrenoceptor (Homo sapiens, UniProt P25100); test: Radioligand binding ([3H]prazosin) on membranes of CHO cells expressing cloned α1d adrenoceptor; conditions: human cloned receptor, CHO cell membranes, 0.2 nM [3H]prazosin; read-out: Affinity (Ki) α1d
T2 construct: expressed in transfected cells; host or cells: CHO cells (membranes)
T2 sequence (P25100 1-572): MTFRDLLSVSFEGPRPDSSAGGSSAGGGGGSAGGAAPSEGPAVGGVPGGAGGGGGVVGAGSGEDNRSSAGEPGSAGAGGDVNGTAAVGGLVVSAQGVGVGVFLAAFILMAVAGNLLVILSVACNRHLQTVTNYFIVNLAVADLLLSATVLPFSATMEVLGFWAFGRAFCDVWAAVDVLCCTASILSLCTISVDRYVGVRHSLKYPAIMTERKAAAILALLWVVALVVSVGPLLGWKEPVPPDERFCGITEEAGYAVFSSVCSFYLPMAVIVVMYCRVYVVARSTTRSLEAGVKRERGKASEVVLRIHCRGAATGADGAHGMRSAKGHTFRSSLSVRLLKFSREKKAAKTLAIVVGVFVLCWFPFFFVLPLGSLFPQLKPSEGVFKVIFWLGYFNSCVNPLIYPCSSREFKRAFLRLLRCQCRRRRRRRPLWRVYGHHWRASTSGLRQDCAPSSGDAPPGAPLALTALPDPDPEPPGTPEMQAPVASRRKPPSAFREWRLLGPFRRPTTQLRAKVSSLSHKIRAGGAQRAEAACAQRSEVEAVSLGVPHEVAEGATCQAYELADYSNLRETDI
Protocol: as §1, with “Genomic clone G-21 coding for the human 5-HT1A-serotoninergic receptor was stably transfected in a human cell line (HeLa) (Fargin et al., J. Biol. Chem. 284, 14848-14852 (1989)).” left out

[3] = molecular target: T3, human 5-HT1A-serotoninergic receptor (Homo sapiens, UniProt P08908); test: Radioligand binding ([3H]8-OH-DPAT) on membranes of HeLa cells expressing cloned 5-HT1A receptor; conditions: read-out: Affinity (Ki) 5-HT1A
T3 construct: expressed in transfected cells; host or cells: HeLa cells (membranes)
T3 sequence (P08908 1-422): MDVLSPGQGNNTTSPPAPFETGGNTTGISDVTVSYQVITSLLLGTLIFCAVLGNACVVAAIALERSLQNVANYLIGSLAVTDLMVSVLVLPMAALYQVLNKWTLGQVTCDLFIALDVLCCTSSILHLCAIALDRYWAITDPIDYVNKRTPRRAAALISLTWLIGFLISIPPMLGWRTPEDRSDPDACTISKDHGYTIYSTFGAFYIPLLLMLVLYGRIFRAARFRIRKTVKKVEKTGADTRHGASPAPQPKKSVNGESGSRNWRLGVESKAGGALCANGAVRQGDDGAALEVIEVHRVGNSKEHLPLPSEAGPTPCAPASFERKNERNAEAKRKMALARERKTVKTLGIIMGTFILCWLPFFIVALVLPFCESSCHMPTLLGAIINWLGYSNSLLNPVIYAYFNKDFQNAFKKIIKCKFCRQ
Protocol: as §1

Rat aorta α1D = molecular target: T4, Rat aorta α1D (Rattus norvegicus, UniProt P23944); test: Functional antagonism of noradrenaline-induced contraction, rat aorta strips; assay type: cell-based, Sprague Dawley rats; conditions: noradrenaline as agonist, 30 minutes incubation, Schild plot; read-out: Functional affinity pKB, Rat aorta α1D (converted)
T4 construct: from tissue; host or cells: rat thoracic aorta, helicoidal strips
T4 sequence (P23944 1-561): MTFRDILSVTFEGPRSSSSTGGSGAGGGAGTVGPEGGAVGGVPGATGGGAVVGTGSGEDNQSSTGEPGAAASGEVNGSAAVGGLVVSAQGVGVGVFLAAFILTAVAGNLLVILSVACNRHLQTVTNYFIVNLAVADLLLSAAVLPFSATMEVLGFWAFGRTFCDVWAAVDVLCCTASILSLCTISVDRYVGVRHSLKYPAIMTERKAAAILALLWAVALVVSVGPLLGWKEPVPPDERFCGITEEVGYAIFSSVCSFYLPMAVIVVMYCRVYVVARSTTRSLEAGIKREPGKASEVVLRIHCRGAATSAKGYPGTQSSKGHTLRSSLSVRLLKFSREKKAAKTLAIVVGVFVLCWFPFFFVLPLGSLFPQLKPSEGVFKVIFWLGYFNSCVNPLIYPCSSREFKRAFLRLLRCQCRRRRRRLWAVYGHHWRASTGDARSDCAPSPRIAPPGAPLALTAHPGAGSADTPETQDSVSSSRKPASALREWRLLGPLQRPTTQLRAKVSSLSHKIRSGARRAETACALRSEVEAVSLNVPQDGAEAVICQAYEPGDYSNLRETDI
Protocol: In vitro assessment of functional antagonism for α1-adrenoceptor subtypes
Thoracic aorta was obtained from Sprague Dawley rats, cut in helicoidal strips and placed in Krebs solution containing desmethylimipramine (0.1 µM), corticosterone (1 µM), propranol (1 µM) and yohimbine (0.1 µM). The strips were mounted for isotonic tension recording in an organ bath containing the above Krebs buffer enriched and aerated constantly with 95% O2 and 5% CO2, maintained at 37°C and loaded with 1.5 g. After an equilibration period, the strips were primed twice with 10 µM noradrenaline, then concentration/response-to-the-agonist curves were constructed before (basal) and after 30 minutes incubation with single antagonist concentrations (response). The Schild-plot parameters were evaluated by linear-regression analysis according to Tallarida and Murray (Manual of Pharmacologic Calculations with Computer Programs, 53-56, Springer-Verlag).

[4] = molecular target: T5, human recombinant α1a adrenoceptor (Homo sapiens, UniProt P35348); test: Radioligand binding ([3H]prazosin) on membranes of CHO cells expressing cloned α1a adrenoceptor; conditions: human cloned receptor, CHO cell membranes, 0.2 nM [3H]prazosin; read-out: Affinity (Ki) α1a
T5 construct: expressed in transfected cells; host or cells: CHO cells (membranes)
T5 sequence (P35348 1-466): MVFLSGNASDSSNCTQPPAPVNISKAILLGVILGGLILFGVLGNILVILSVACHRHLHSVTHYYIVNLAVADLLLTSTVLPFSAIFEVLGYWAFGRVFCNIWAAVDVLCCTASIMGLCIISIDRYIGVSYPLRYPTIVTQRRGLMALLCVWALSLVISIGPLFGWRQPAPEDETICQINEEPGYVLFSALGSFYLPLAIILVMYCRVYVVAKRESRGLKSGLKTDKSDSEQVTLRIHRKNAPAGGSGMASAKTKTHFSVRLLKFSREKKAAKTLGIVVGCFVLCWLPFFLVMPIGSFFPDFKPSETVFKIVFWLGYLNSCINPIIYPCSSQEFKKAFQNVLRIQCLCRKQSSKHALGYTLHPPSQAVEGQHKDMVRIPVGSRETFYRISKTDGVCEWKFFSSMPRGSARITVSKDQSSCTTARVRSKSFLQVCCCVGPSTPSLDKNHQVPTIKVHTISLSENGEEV
Protocol: as §1, with “Genomic clone G-21 coding for the human 5-HT1A-serotoninergic receptor was stably transfected in a human cell line (HeLa) (Fargin et al., J. Biol. Chem. 284, 14848-14852 (1989)).” left out

[5] = human cloned receptor, HeLa cell membranes, 1.2 nM [3H]8-OH-DPAT

Compound | Ki [1] | Ki [2] | Ki [3] | Ki [3, 5] | Kb (Rat aorta α1D) | Ki [4]
O=C1CCC(=O)N1CCN1CCN(c2cc(Cl)ccc2Cl)CC1 [Example 12, 1-{2-[4-(2,5-Dichlorophenyl)-1-piperazinyl]-ethyl}-pyrrolidine-2,5-dione] | 86.4 nM | 7.78 nM | > 1000 nM | – | – | –
O=C1CC2(CCCC2)CCN1CCN1CCN(c2cc(Cl)ccc2Cl)CC1 [Example 19, 8-{2-[4-(2,5-Dichlorophenyl)-1-piperazinyl]-ethyl}-8-azaspiro[4.5]decane-7-one] | 10.6 nM | – | – | 17.4 nM | 1.29 nM | –
O=C1CC2(CCCCC2)CCN1CCN1CCN(c2cc(Cl)ccc2Cl)CC1 [Example 25, 3-{2-[4-(2,5-Dichlorophenyl)-1-piperazinyl]-ethyl}-3-azaspiro[5.5]undecane-2-one] | – | 0.66 nM | 40.4 nM | – | – | –
O=C1CC2(CCCCCC2)CC(=O)N1CCN1CCN(c2cc(Cl)ccc2Cl)CC1 [Example 26, 3-{2-[4-(2,5-Dichlorophenyl)-1-piperazinyl]-ethyl}-3-azaspiro[5.6]dodecane-2,4-dione] | – | 0.96 nM | 35.3 nM | – | – | –
Cc1ccc(Cl)c(N2CCN(CCN3C(=O)CC4(CCCC4)CC3=O)CC2)c1 [Example 3, 8-{2-[4-(2-Chloro-5-methylphenyl)-1-pirerazinyl]-ethyl}-8-azaspiro[4.5]decane-7,9-dione] | 193 nM | – | – | 69.5 nM | – | 126 nM
